In article PMC9329436, “Optimization of the 4-anilinoquin(az)oline scaffold as epidermal growth factor receptor (EGFR) inhibitors for chordoma utilizing a toxicology profiling assay platform” (Scientific Reports, 2022):
pIC50: −log10 of the molar value.

system: U-CH1 chordoma cell line; experiment: Cell viability assay (alamarBlue, 72 h), U-CH1; type: cell-based, human; settings: Homo sapiens, UCH1, n = 4, 72 h
Description: (§1) Chordoma cell lines were cultured as described previously[10],[12],[33],[34]. Briefly, U-CH1 and U-CH2 cell lines were cultured in 4:1 IMDM:RPMI medium supplemented with 10% fetal bovine serum (FBS) and 1% penicillin/streptomycin in gel-coated flasks. […] CH22, UM-Chor1, U-CH12, and U-CH7 cell lines were cultured in RPMI medium supplemented with 10% FBS and 1% penicillin/streptomycin. The cell lines all undergo regular mycoplasma screening.
(§2) Cells were seeded in 384 well plates and were treated with test compound in quadruplicate 24 h after plating. Cell viability was assessed at 72 h using alamarBlue (ThermoFisher, USA). […] IC50 values were determined by four-parameter nonlinear regression analyses using GraphPad Prism™ version 8 software (San Diego, CA).

| Structure (SMILES) | pIC50 |
| --- | --- |
| C#Cc1cccc(Nc2c(C#N)cnc3cc(OC)c(OC)cc23)c1 [Compound 22, 4-((3-ethynylphenyl)amino)-6,7-dimethoxyquinoline-3-carbonitrile] | 5.39 |

same assay, conditions: n = 4, 72 h

| Structure (SMILES) | pIC50 |
| --- | --- |
| C#Cc1cccc(Nc2ncnc3ccc(OC)cc23)c1 [Compound 2] | 5.85 |
| C#Cc1cccc(Nc2ncnc3ccccc23)c1 [Compound 3] | 4.46 |
| C#Cc1cccc(Nc2ncnc3ccc(C)cc23)c1 [Compound 4] | 4.82 |
| C#Cc1cccc(Nc2ncnc3ccc(F)cc23)c1 [Compound 5] | 4.72 |
| C#Cc1cccc(Nc2ncnc3ccc(Cl)cc23)c1 [Compound 7] | 4.60 |
| C#Cc1cccc(Nc2ncnc3ccc(Br)cc23)c1 [Compound 8] | 4.80 |
| C#Cc1cccc(Nc2ncnc3ccc(C(F)(F)F)cc23)c1 [Compound 10] | 4.68 |
| C#Cc1cccc(Nc2ncnc3cc(F)ccc23)c1 [Compound 12] | 4.39 |
| C#Cc1cccc(Nc2ncnc3cc(Br)ccc23)c1 [Compound 14] | 4.27 |
| C#Cc1cccc(Nc2ncnc3ccc(C#N)cc23)c1 [Compound 18] | 4.13 |
| C#Cc1cccc(Nc2ncnc3ccc(S(C)(=O)=O)cc23)c1 [Compound 19] | 4.35 |
| C#Cc1cccc(Nc2ncnc3cc4c(cc23)OCO4)c1 [Compound 20] | 4.66 |
| C#Cc1cccc(Nc2c(C#N)cnc3ccc(OC)cc23)c1 [Compound 23] | 4.70 |

system: HL60 cells; experiment: AsedaSciences SYSTEMETRIC Cell Health Screen (flow cytometry toxicity profiling); settings: HL60, 4 h, 5 nM–100 µM, probability 0–1, n = 2
Text: To prioritize further optimization, in addition to cellular potency, we utilized the AsedaSciences® […]® Cell Health Screen. This live cell flow cytometry (FC) screen was developed to assess human safety risk for candidate pharmaceutical small molecules at the early hit-to-lead stage of development. The screen works by estimating the risk using a supervised machine learning (ML) classifier to assess a multiparametric cellular stress phenotype, produced by the test compound, relative to a training set of known compounds (Table S1). This screen has been designed for early pipeline risk estimation regardless of pharmaceutical class/disease type, so it uses HL60 as the reporter cell line.
The ML classifier was trained with 300 historically known compounds (on market or withdrawn drugs, research compounds, etc.), which were divided into two outcome classes based upon literature, clinical trials, and market histories where applicable. This external curation informed an outcome of “high-risk” or “low-risk”. All 300 compounds were also processed through the automated FC screen, populating each of the two classes with frequency distributions of empirical cell-based phenotypes.
To estimate human safety risk for an unknown compound, the ML classifier assesses the similarity of the test compound’s cell-based phenotype to the distributions of phenotypes in the two outcome classes. […] Phenotypes are derived from twelve FC detection parameters, including light scatter and a series of fluorescent physiological reporter dyes, that track cell stress-related endpoints.
To produce the Cell Health Index, the ML classifier uses all twelve FC parameters simultaneously in a multidimensional logistic regression model, so the CHI contains the most predictive power. In addition to the Cell Health Index, Table 4 also reports probability scores for eight cell stress-related endpoints. These scores are produced individually by passing information to the ML classifier relating to parameters that inform that endpoint. For example, to produce the cell morphology (CM) score, the ML classifier only uses the FC detection parameters for forward scatter (informing change in cell diameter) and side scatter (informing change in optical granularity of the cell) to inform the model. Together, these eight endpoints provide a “biological fingerprint”, allowing assessment of the degree to which SAR series members behave differently across endpoints.
In a 384-well platform, HL60 cells were exposed to a 10-step, 3 × dilution series of each test compound (5 nM–100 µM) for 4 h at 37 °C with 5% CO2. Each dilution series was screened in duplicate, occupying a total of 20 wells, allowing 16 test compounds to be assayed per plate. Each row contained one positive and one negative control well, for a total of 16 replicate positive/negative control pairs on each assay plate. Compound formatting, cell deposition, and dye application were performed robotically so that final assay conditions comprised 100,000 cells in a 40 µL volume. After the 4 h compound exposure, cells were immediately stained with a panel of fluorescent dyes that report physiological signatures of both mitochondrial dysfunction and gross cell stress. Fluorescence and forward/side-scatter data were collected using automated FC with no gating. FC data are processed by an automated algorithm for producing quality control measures and ML classification of compound phenotypes. • 2. HL60 cell culture production
HL60 cells were produced as suspension cultures in glass 850 cm^2 roller bottles with vented caps, at 1 RPM, 5% CO2, and 37 °C. […] Culture density was maintained at or below 1 × 10^6 cells/mL.

| Structure (SMILES) | CC: Cell Cycle score | CM: Cell morphology score | CMI: Cell membrane integrity score | GSH: Glutathione score | MMP: Mitochondrial membrane depolarization score | NMI1: Nuclear membrane integrity 1 score | NMI2: Nuclear membrane integrity 2 score | ROS: Reactive superoxide species score |
| --- | --- | --- | --- | --- | --- | --- | --- | --- |
| C#Cc1cccc(Nc2ncnc3ccc(OC)cc23)c1 [Compound 2] | 0.38 | 0.24 | 0.62 | 0.038 | 0.019 | 0.42 | 0.068 | 0.17 |
| C#Cc1cccc(Nc2ncnc3ccccc23)c1 [Compound 3] | 0.86 | 0.96 | 0.99 | 0.98 | 1.00 | 0.53 | 0.76 | 0.98 |
| C#Cc1cccc(Nc2ncnc3ccc(C)cc23)c1 [Compound 4] | 0.65 | 0.0051 | 0.21 | 0.12 | 0.49 | 0.059 | 0.17 | 0.20 |
| C#Cc1cccc(Nc2ncnc3ccc(F)cc23)c1 [Compound 5] | 0.34 | 0.0041 | 0.091 | 0.087 | 0.26 | 0.082 | 0.11 | 0.34 |
| C#Cc1cccc(Nc2ncnc3ccc(Cl)cc23)c1 [Compound 7] | 0.10 | 0.0047 | 0.030 | 0.011 | 0.015 | 0.13 | 0.053 | 0.20 |
| C#Cc1cccc(Nc2ncnc3ccc(Br)cc23)c1 [Compound 8] | 0.087 | 0.0037 | 0.0024 | 0.05 | 0.11 | 0.13 | 0.020 | 0.083 |
| C#Cc1cccc(Nc2ncnc3ccc(C(F)(F)F)cc23)c1 [Compound 10] | 0.59 | 0.058 | 0.045 | 0.004 | 0.74 | 0.21 | 0.19 | 0.77 |
| C#Cc1cccc(Nc2ncnc3cc(F)ccc23)c1 [Compound 12] | 0.59 | 0.058 | 0.045 | 0.004 | 0.74 | 0.21 | 0.19 | 0.77 |
| C#Cc1cccc(Nc2ncnc3cc(Br)ccc23)c1 [Compound 14] | 0.74 | 0.024 | 0.41 | 0.010 | 0.17 | 0.033 | 0.3 | 0.86 |
| C#Cc1cccc(Nc2ncnc3ccc(C#N)cc23)c1 [Compound 18] | 0.27 | 0.0026 | 0.0079 | 0.023 | 0.11 | 0.33 | 0.094 | 0.042 |
| C#Cc1cccc(Nc2ncnc3ccc(S(C)(=O)=O)cc23)c1 [Compound 19] | 0.33 | 0.0013 | 0.0057 | 0.044 | 0.21 | 0.36 | 0.089 | 0.055 |
| C#Cc1cccc(Nc2ncnc3cc4c(cc23)OCO4)c1 [Compound 20] | 0.13 | 0.0019 | 0.0038 | 0.087 | 0.016 | 0.72 | 0.0045 | 0.027 |

same assay, conditions: HL60, 4 h, 5 nM–100 µM, probability (0–1) of high-risk class, n = 2

| Structure (SMILES) | CHI: Cell Health Index |
| --- | --- |
| C#Cc1cccc(Nc2ncnc3ccc(OC)cc23)c1 [Compound 2] | 0.31 |
| C#Cc1cccc(Nc2ncnc3ccccc23)c1 [Compound 3] | 0.74 |
| C#Cc1cccc(Nc2ncnc3ccc(C)cc23)c1 [Compound 4] | 0.31 |
| C#Cc1cccc(Nc2ncnc3ccc(F)cc23)c1 [Compound 5] | 0.26 |
| C#Cc1cccc(Nc2ncnc3ccc(Cl)cc23)c1 [Compound 7] | 0.16 |
| C#Cc1cccc(Nc2ncnc3ccc(Br)cc23)c1 [Compound 8] | 0.19 |
| C#Cc1cccc(Nc2ncnc3ccc(C(F)(F)F)cc23)c1 [Compound 10] | 0.40 |
| C#Cc1cccc(Nc2ncnc3cc(F)ccc23)c1 [Compound 12] | 0.40 |
| C#Cc1cccc(Nc2ncnc3cc(Br)ccc23)c1 [Compound 14] | 0.33 |
| C#Cc1cccc(Nc2ncnc3ccc(C#N)cc23)c1 [Compound 18] | 0.18 |
| C#Cc1cccc(Nc2ncnc3ccc(S(C)(=O)=O)cc23)c1 [Compound 19] | 0.22 |
| C#Cc1cccc(Nc2ncnc3cc4c(cc23)OCO4)c1 [Compound 20] | 0.18 |

same assay, conditions: SYSTEMETRIC Cell Health Screen; assay n=2

| Structure (SMILES) | Cell Health Toxcity Profile CC (DyeCycle Violet) | Cell Health Toxcity Profile CM (Cell morphology) | Cell Health Toxcity Profile CMI (Cell membrane integrity) | Cell Health Toxcity Profile GSH (Glutathione) | Cell Health Toxcity Profile MMP (Mitochondrial membrane depolarization) | Cell Health Toxcity Profile NMI1 (Nuclear membrane integrity 1) | Cell Health Toxcity Profile NMI2 (Nuclear membrane integrity 2) | Cell Health Toxcity Profile ROS (Reactive superoxide species) |
| --- | --- | --- | --- | --- | --- | --- | --- | --- |
| C#Cc1cccc(Nc2c(C#N)cnc3cc(OC)c(OC)cc23)c1 [Compound 22, 4-((3-ethynylphenyl)amino)-6,7-dimethoxyquinoline-3-carbonitrile] | 0.33 | 0.35 | 0.77 | 0.071 | 0.39 | 0.67 | 0.29 | 0.81 |
| C#Cc1cccc(Nc2c(C#N)cnc3ccc(OC)cc23)c1 [Compound 23] | 0.74 | 0.020 | 0.0039 | 0.0085 | 0.28 | 0.30 | 0.11 | 0.056 |

same assay, conditions: SYSTEMETRIC Cell Health Screen; classifier output; assay n=2

| Structure (SMILES) | Cell Health Toxcity Profile CHI |
| --- | --- |
| C#Cc1cccc(Nc2c(C#N)cnc3cc(OC)c(OC)cc23)c1 [Compound 22, 4-((3-ethynylphenyl)amino)-6,7-dimethoxyquinoline-3-carbonitrile] | 0.40 |
| C#Cc1cccc(Nc2c(C#N)cnc3ccc(OC)cc23)c1 [Compound 23] | 0.26 |

system: U-CH2 chordoma cell line; experiment: Cell viability assay (alamarBlue, 72 h), U-CH2; type: cell-based, human; settings: Homo sapiens, UCH2, n = 4, 72 h
Description: as §1, §2

| Structure (SMILES) | pIC50 |
| --- | --- |
| C#Cc1cccc(Nc2c(C#N)cnc3cc(OC)c(OC)cc23)c1 [Compound 22, 4-((3-ethynylphenyl)amino)-6,7-dimethoxyquinoline-3-carbonitrile] | 4.44 |

same assay, conditions: n = 4, 72 h

| Structure (SMILES) | pIC50 |
| --- | --- |
| C#Cc1cccc(Nc2ncnc3ccc(OC)cc23)c1 [Compound 2] | 4.33 |
| C#Cc1cccc(Nc2ncnc3ccccc23)c1 [Compound 3] | 4.28 |
| C#Cc1cccc(Nc2ncnc3ccc(C)cc23)c1 [Compound 4] | < 4.00 |
| C#Cc1cccc(Nc2ncnc3ccc(F)cc23)c1 [Compound 5] | < 4.00 |
| C#Cc1cccc(Nc2ncnc3ccc(Cl)cc23)c1 [Compound 7] | < 4.00 |
| C#Cc1cccc(Nc2ncnc3ccc(Br)cc23)c1 [Compound 8] | < 4.00 |
| C#Cc1cccc(Nc2ncnc3ccc(C(F)(F)F)cc23)c1 [Compound 10] | 4.38 |
| C#Cc1cccc(Nc2ncnc3cc(F)ccc23)c1 [Compound 12] | < 4.00 |
| C#Cc1cccc(Nc2ncnc3cc(Br)ccc23)c1 [Compound 14] | < 4.00 |
| C#Cc1cccc(Nc2ncnc3ccc(C#N)cc23)c1 [Compound 18] | < 4.00 |
| C#Cc1cccc(Nc2ncnc3ccc(S(C)(=O)=O)cc23)c1 [Compound 19] | 4.28 |
| C#Cc1cccc(Nc2ncnc3cc4c(cc23)OCO4)c1 [Compound 20] | < 4.00 |
| C#Cc1cccc(Nc2c(C#N)cnc3ccc(OC)cc23)c1 [Compound 23] | < 4.00 |
